Measurements taken from PMC9696254, “Discovery of p-Terphenyl Metabolites as Potential Phosphodiesterase PDE4D Inhibitors from the Coral-Associated Fungus Aspergillus sp. ITBBc1” (Marine Drugs, 2022).

Molecular target: PDE4D (Homo sapiens, UniProt Q08499)
Assay: in vitro PDE4D inhibition assay, liquid scintillation counting, three independent experiments
Type: biochemical

Sequence of PDE4D (Q08499 whole entry): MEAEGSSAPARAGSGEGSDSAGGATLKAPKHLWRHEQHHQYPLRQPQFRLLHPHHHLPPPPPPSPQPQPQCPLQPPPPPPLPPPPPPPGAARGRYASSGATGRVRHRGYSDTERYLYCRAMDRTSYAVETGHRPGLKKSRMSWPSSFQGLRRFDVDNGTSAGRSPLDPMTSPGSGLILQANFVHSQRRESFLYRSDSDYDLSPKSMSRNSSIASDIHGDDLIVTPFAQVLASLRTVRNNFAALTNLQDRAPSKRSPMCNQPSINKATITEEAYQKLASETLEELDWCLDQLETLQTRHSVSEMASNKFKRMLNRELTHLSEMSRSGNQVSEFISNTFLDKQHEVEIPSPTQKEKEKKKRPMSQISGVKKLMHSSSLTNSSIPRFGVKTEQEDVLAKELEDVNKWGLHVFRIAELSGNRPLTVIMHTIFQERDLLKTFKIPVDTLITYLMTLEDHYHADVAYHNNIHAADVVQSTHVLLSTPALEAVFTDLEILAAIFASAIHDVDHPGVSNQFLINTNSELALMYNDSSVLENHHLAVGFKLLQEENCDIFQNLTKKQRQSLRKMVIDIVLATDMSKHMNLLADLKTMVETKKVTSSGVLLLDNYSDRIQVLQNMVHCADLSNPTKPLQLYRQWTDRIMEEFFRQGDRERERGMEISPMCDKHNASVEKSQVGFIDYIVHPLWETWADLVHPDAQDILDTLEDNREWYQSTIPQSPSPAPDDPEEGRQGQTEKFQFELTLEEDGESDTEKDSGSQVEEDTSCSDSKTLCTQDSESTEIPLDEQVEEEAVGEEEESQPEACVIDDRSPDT

IC50: 5.54 ± 0.24 µM
SMILES: COc1cc(-c2ccccc2)c(OC)c(O)c1-c1ccc2c(c1)C=CC(C)(C)O2 [compound 3, Sanshamycin C]
